Measurements: patent US20260325540A1 (priority 2023, published 2026)

Biological target: SARS-CoV-2 3CLpro (Severe acute respiratory syndrome coronavirus 2, UniProt P0DTD1)
Assay: FRET based protease assay, SARS-CoV-2 3CL
Assay type: biochemical, SARS-CoV-2 (strain BetaCoV/Wuhan/WIV04/2019)
Settings: not given

SMILES	IC50 [nM]
CC(C)C[C@@H]1NC(=O)[C@@H](NC(=O)C(C)(C)C)CCCC[C@H]2CNC(=O)[C@H]2C[C@@H](C#N)NC1=O [Example 44]	< 100
CC(C)C[C@@H]1NC(=O)[C@@H](NC(=O)C(C)(C)C)CCCC[C@H]2CNC(=O)[C@@H]2C[C@@H](C#N)NC1=O [Example 54]	100 to 1000
CC(C)C[C@@H]1NC(=O)[C@@H](N(C)C(=O)OC(C)(C)C)CCC[C@H]2CNC(=O)[C@@H]2C[C@@H](C#N)NC1=O [Example 22]	> 20000
CC(C)(F)C[C@@H]1NC(=O)[C@@H](NC(=O)OC(C)(C)C)CCCC[C@H]2CNC(=O)[C@H]2C[C@@H](C#N)NC1=O [Example 138]	100 to 1000
CC1(C)[C@@H]2[C@H]3C(=O)N[C@H](C#N)C[C@@H]4C(=O)NCC[C@@H]4CCCC[C@H](NC(=O)C(F)(F)F)C(=O)N3C[C@@H]21 [Example 104]	< 100
CC1(C)[C@@H]2[C@H]3C(=O)N[C@H](C#N)C[C@@H]4C(=O)NC[C@@H]4CCCC[C@H](NC(=O)C(C)(C)C(F)(F)F)C(=O)N3C[C@@H]21 [Example 141]	< 100
CC(C)(C)C[C@@H]1NC(=O)[C@@H](NC(=O)c2ccc(F)c(C(F)(F)F)c2)CCCC[C@H]2CNC(=O)[C@H]2C[C@@H](C#N)NC1=O [Example 142]	100 to 1000
N#C[C@@H]1C[C@@H]2C(=O)NC[C@@H]2CCCC[C@H](NC(=O)C2(C(F)(F)F)CC2)C(=O)N2C[C@@H]3CCC[C@@H]3[C@H]2C(=O)N1 [Example 150]	< 100
CC(C)C[C@@H]1NC(=O)[C@@H](C2CCCC2)CCC[C@@H]2CNC(=O)[C@@H]2C[C@@H](C=O)NC1=O [Example 14]	100 to 1000
Cc1nc(C(=O)N[C@H]2CCCC[C@H]3CNC(=O)[C@H]3C[C@@H](C#N)NC(=O)[C@@H]3[C@@H]4[C@H](CN3C2=O)C4(C)C)co1 [Example 115]	< 100
CC1(C)[C@@H]2[C@H]3C(=O)N[C@H](C#N)C[C@@H]4C(=O)NCC[C@@H]4CCCC[C@H](NC(=O)c4ccc(F)cc4F)C(=O)N3C[C@@H]21 [Example 129]	< 100
CC1(C(=O)N[C@H]2CCCC[C@H]3CNC(=O)[C@H]3C[C@@H](C#N)NC(=O)[C@@H]3[C@@H]4[C@H](CN3C2=O)C4(C)C)CCC1 [Example 118]	< 100
CC(C)(C)OC(=O)N[C@H]1CCCC[C@H]2CCNC(=O)C2C[C@@H](C#N)NC(=O)[C@@H]2[C@H]3CCC[C@H]3CN2C1=O (some centres unmarked) [Example 98]	100 to 1000
CC(C)(C)C(=O)N[C@H]1CCCC[C@H]2CNC(=O)[C@H]2C[C@@H](C#N)NC(=O)[C@@H]2[C@@H]3[C@H](CN2C1=O)C3(C)C [Example 55]	< 100
CC(C)C[C@@H]1NC(=O)[C@@H](NC(=O)OC(C)(C)C)CCCC[C@H]2CNC(=O)[C@H]2C[C@@H](C#N)NC1=O [Example 56]	100 to 1000
CC(C)(C)OC(=O)N[C@H]1CCCC[C@H]2CNC(=O)[C@H]2C[C@@H](C#N)NC(=O)[C@H]2N(CC(F)(F)C2(C)C)C1=O [Example 146]	100 to 1000
CC(C)(C)C(=O)N[C@H]1CCCC[C@H]2CCNC(=O)[C@H]2C[C@@H](C#N)NC(=O)[C@@H]2[C@@H]3[C@H](CN2C1=O)C3(C)C [Example 69]	< 100
CC1(C(=O)N[C@H]2CCCC[C@H]3CNC(=O)[C@H]3C[C@@H](C#N)NC(=O)[C@@H]3[C@@H]4[C@H](CN3C2=O)C4(C)C)COC1 [Example 123]	< 100
CC1(C)[C@@H]2[C@H]3C(=O)N[C@H](C#N)C[C@@H]4C(=O)NC[C@@H]4CCCC[C@H](NC(=O)c4ccc(Cl)c(Cl)c4)C(=O)N3C[C@@H]21 [Example 120]	< 100
CC(C)(C)CC(=O)N[C@H]1CCCC[C@H]2CCNC(=O)[C@H]2C[C@@H](C#N)NC(=O)[C@@H]2[C@H]3CCC[C@H]3CN2C1=O [Example 95]	< 100
CC(C)(C)OC(=O)N[C@H]1CCC[C@H]2CCNC(=O)[C@H]2C[C@@H](C#N)NC(=O)[C@@H]2[C@H]3CCC[C@H]3CN2C1=O [Example 100]	1000 to 20000
CC(C)(C)COC(=O)N[C@H]1CCCC[C@H]2CNC(=O)[C@H]2C[C@@H](C#N)NC(=O)[C@@H]2[C@@H]3[C@H](CN2C1=O)C3(C)C [Example 106]	< 100
CCC(C)(C)[C@@H]1NC(=O)[C@@H](NC(=O)OC(C)(C)C)CCCC[C@H]2CNC(=O)[C@H]2C[C@@H](C#N)NC1=O [Example 145]	1000 to 20000
CC1(C)[C@@H]2[C@H]3C(=O)N[C@H](C#N)C[C@@H]4C(=O)NC[C@@H]4CCCC[C@H](Nc4cc(C(F)(F)F)ncn4)C(=O)N3C[C@@H]21 [Example 163]	< 100
CC(C)(C)C(=O)N[C@H]1C/C=C\[C@H]2CNC(=O)[C@H]2C[C@@H](C#N)NC(=O)[C@@H]2[C@@H]3[C@H](CN2C1=O)C3(C)C [Example 64]	> 20000

Biological target: MERS-CoV 3CLpro (Middle East respiratory syndrome-related coronavirus, UniProt K9N638)
Sequence (K9N638 3248-3553 limits assumed): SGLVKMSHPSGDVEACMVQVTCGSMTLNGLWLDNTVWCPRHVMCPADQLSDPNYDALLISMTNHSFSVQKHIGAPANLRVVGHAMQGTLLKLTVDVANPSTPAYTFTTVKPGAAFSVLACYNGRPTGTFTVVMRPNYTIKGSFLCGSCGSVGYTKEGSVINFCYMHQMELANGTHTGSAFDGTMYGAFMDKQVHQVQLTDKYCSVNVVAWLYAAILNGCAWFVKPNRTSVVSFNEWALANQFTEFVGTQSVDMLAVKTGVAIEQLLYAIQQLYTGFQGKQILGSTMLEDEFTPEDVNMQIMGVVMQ
Assay: biochemical
Settings: MERS IC50, 75 nM MERS-CoV 3CLpro, 6 μM peptide 1 substrate, 25° C., 1.5 hrs, pH 7.5

SMILES	IC50 [nM]
CC(C)C[C@@H]1NC(=O)[C@@H](NC(=O)C(C)(C)C)CCCC[C@H]2CNC(=O)[C@H]2C[C@@H](C#N)NC1=O [Example 44]	100 to 1000
CC(C)C[C@@H]1NC(=O)[C@@H](NC(=O)C(C)(C)C)CCCC[C@H]2CNC(=O)[C@@H]2C[C@@H](C#N)NC1=O [Example 54]	100 to 1000
CC(C)C[C@@H]1NC(=O)[C@@H](N(C)C(=O)OC(C)(C)C)CCC[C@H]2CNC(=O)[C@@H]2C[C@@H](C#N)NC1=O [Example 22]	> 20000
CC(C)(F)C[C@@H]1NC(=O)[C@@H](NC(=O)OC(C)(C)C)CCCC[C@H]2CNC(=O)[C@H]2C[C@@H](C#N)NC1=O [Example 138]	100 to 1000
CC1(C)[C@@H]2[C@H]3C(=O)N[C@H](C#N)C[C@@H]4C(=O)NCC[C@@H]4CCCC[C@H](NC(=O)C(F)(F)F)C(=O)N3C[C@@H]21 [Example 104]	< 100
CC1(C)[C@@H]2[C@H]3C(=O)N[C@H](C#N)C[C@@H]4C(=O)NC[C@@H]4CCCC[C@H](NC(=O)C(C)(C)C(F)(F)F)C(=O)N3C[C@@H]21 [Example 141]	< 100
CC(C)(C)C[C@@H]1NC(=O)[C@@H](NC(=O)c2ccc(F)c(C(F)(F)F)c2)CCCC[C@H]2CNC(=O)[C@H]2C[C@@H](C#N)NC1=O [Example 142]	100 to 1000
N#C[C@@H]1C[C@@H]2C(=O)NC[C@@H]2CCCC[C@H](NC(=O)C2(C(F)(F)F)CC2)C(=O)N2C[C@@H]3CCC[C@@H]3[C@H]2C(=O)N1 [Example 150]	< 100
CC(C)C[C@@H]1NC(=O)[C@@H](C2CCCC2)CCC[C@@H]2CNC(=O)[C@@H]2C[C@@H](C=O)NC1=O [Example 14]	1000 to 20000
Cc1nc(C(=O)N[C@H]2CCCC[C@H]3CNC(=O)[C@H]3C[C@@H](C#N)NC(=O)[C@@H]3[C@@H]4[C@H](CN3C2=O)C4(C)C)co1 [Example 115]	< 100
CC1(C)[C@@H]2[C@H]3C(=O)N[C@H](C#N)C[C@@H]4C(=O)NCC[C@@H]4CCCC[C@H](NC(=O)c4ccc(F)cc4F)C(=O)N3C[C@@H]21 [Example 129]	< 100
CC1(C(=O)N[C@H]2CCCC[C@H]3CNC(=O)[C@H]3C[C@@H](C#N)NC(=O)[C@@H]3[C@@H]4[C@H](CN3C2=O)C4(C)C)CCC1 [Example 118]	100 to 1000
CC(C)(C)OC(=O)N[C@H]1CCCC[C@H]2CCNC(=O)C2C[C@@H](C#N)NC(=O)[C@@H]2[C@H]3CCC[C@H]3CN2C1=O (some centres unmarked) [Example 98]	100 to 1000
CC(C)(C)C(=O)N[C@H]1CCCC[C@H]2CNC(=O)[C@H]2C[C@@H](C#N)NC(=O)[C@@H]2[C@@H]3[C@H](CN2C1=O)C3(C)C [Example 55]	100 to 1000
CC(C)C[C@@H]1NC(=O)[C@@H](NC(=O)OC(C)(C)C)CCCC[C@H]2CNC(=O)[C@H]2C[C@@H](C#N)NC1=O [Example 56]	100 to 1000
CC(C)(C)OC(=O)N[C@H]1CCCC[C@H]2CNC(=O)[C@H]2C[C@@H](C#N)NC(=O)[C@H]2N(CC(F)(F)C2(C)C)C1=O [Example 146]	100 to 1000
CC(C)(C)C(=O)N[C@H]1CCCC[C@H]2CCNC(=O)[C@H]2C[C@@H](C#N)NC(=O)[C@@H]2[C@@H]3[C@H](CN2C1=O)C3(C)C [Example 69]	100 to 1000
CC1(C(=O)N[C@H]2CCCC[C@H]3CNC(=O)[C@H]3C[C@@H](C#N)NC(=O)[C@@H]3[C@@H]4[C@H](CN3C2=O)C4(C)C)COC1 [Example 123]	100 to 1000
CC1(C)[C@@H]2[C@H]3C(=O)N[C@H](C#N)C[C@@H]4C(=O)NC[C@@H]4CCCC[C@H](NC(=O)c4ccc(Cl)c(Cl)c4)C(=O)N3C[C@@H]21 [Example 120]	< 100
CC(C)(C)CC(=O)N[C@H]1CCCC[C@H]2CCNC(=O)[C@H]2C[C@@H](C#N)NC(=O)[C@@H]2[C@H]3CCC[C@H]3CN2C1=O [Example 95]	100 to 1000
CC(C)(C)OC(=O)N[C@H]1CCC[C@H]2CCNC(=O)[C@H]2C[C@@H](C#N)NC(=O)[C@@H]2[C@H]3CCC[C@H]3CN2C1=O [Example 100]	1000 to 20000
CC(C)(C)COC(=O)N[C@H]1CCCC[C@H]2CNC(=O)[C@H]2C[C@@H](C#N)NC(=O)[C@@H]2[C@@H]3[C@H](CN2C1=O)C3(C)C [Example 106]	100 to 1000
CCC(C)(C)[C@@H]1NC(=O)[C@@H](NC(=O)OC(C)(C)C)CCCC[C@H]2CNC(=O)[C@H]2C[C@@H](C#N)NC1=O [Example 145]	1000 to 20000
CC1(C)[C@@H]2[C@H]3C(=O)N[C@H](C#N)C[C@@H]4C(=O)NC[C@@H]4CCCC[C@H](Nc4cc(C(F)(F)F)ncn4)C(=O)N3C[C@@H]21 [Example 163]	100 to 1000
CC(C)(C)C(=O)N[C@H]1C/C=C\[C@H]2CNC(=O)[C@H]2C[C@@H](C#N)NC(=O)[C@@H]2[C@@H]3[C@H](CN2C1=O)C3(C)C [Example 64]	> 20000
